These results are taken from patent US20130281399A1, “TREATMENT OF DISEASES BY EPIGENETIC REGULATION” (RVX Therapeutics Inc., priority 2012, published 2013).

In one data set the target is T1, Brd4 bromodomain 1 (Homo sapiens, UniProt O60885).
T1 construct: made in house; host or cells: E. coli BL21(DE3)
The experiment in a line: Inhibition of binding of tetra-acetylated histone H4 to Brd4 bromodomain 1 (TR-FRET). Particulars: His-tagged Brd4 bromodomain 1 200 nM, tetra-acetylated histone H4 peptide 25-50 nM, 2 hours room temperature. As to the method:
Proteins were cloned and overexpressed with a N-terminal 6×His tag, then purified by nickel affinity followed by size exclusion chromatography. Briefly, E. coli BL21(DE3) cells were transformed with a recombinant expression vector encoding N-terminally Nickel affinity tagged bromodomains from Brd2, Brd3, Brd4. Cell cultures were incubated at 37° C. with shaking to the appropriate density and induced overnight with IPTG. The supernatant of lysed cells was loaded onto Ni-IDA column for purification. Eluted protein was pooled, concentrated and further purified by size exclusion chromatography. Fractions representing monomeric protein were pooled, concentrated, aliquoted, and frozen at −80° C. for use in subsequent experiments.
For inhibition assays, serially diluted test compound was added to these reactions in a 0.2% final concentration of DMSO. Final buffer concentrations were 30 mM HEPES pH 7.4, 30 mM NaCl, 0.3 mM CHAPS, 20 mM phosphate pH 7.0, 320 mM KF, 0.08% BSA). […] The binding inhibitory activity was shown by a decrease in 665 nm fluorescence relative to 620 nm. IC50 values were determined from a dose response curve.

The molecule `COc1cc(OC)c2c(=O)[nH]c(-c3cc(C)c(OCCN4CCCC4)c(C)c3)nc2n1` registered a melting point of 228 to 230 °C.
`COc1cc(OC)c2c(=O)[nH]c(-c3ccc(N4CCC(O)CC4)cc3)nc2n1` [Example 8, 2-(4-(4-Hydroxypiperidin-1-yl)phenyl)-5,7-dimethoxypyrido[2,3-d]pyrimidin-4(3H)-one] came in with a melting point of 284 to 286 °C. Moreover, at Brd4 bromodomain 1, the “FRET activity (<50 uM)” value is on record as “Active”.
On the same counts, the results for `COCCOc1cc(OC)c2c(=O)[nH]c(-c3ccc(N4C[C@@H](C)N(C(C)=O)[C@@H](C)C4)cc3)nc2c1` [Example 9, 2-(4-((3R,5S)-4-Acetyl-3,5-dimethylpiperazin-1-yl)phenyl)-5-methoxy-7-(2-methoxyethoxy)quinazolin-4(3H)-one] are 225 to 227 °C and “Active”.
Take `COc1cc(OC)c2c(=O)[nH]c(-c3cc(C)c(OCCN4Cc5ccccc5C4)c(C)c3)nc2c1` [Example 65, 2-(4-(2-(Isoindolin-2-yl)ethoxy)-3,5-dimethylphenyl)-5,7-dimethoxyquinazolin-4(3H)-one]: at Brd4 bromodomain 1, the “FRET activity (<50 uM)” value is given as “Active”.
For `COc1cccc2nc(-c3cc(C)c(OCCN4CCCC4)c(C)c3)[nH]c(=O)c12` [Example 66, 2-(3,5-Dimethyl-4-(2-(pyrrolidin-1-yl)ethoxy)phenyl)-5-methoxyquinazolin-4(3H)-one], the melting point lay within 157 to 158 °C. Further, the “FRET activity (<50 uM)” value on Brd4 bromodomain 1 is on record as “Active”.
Molecule `Cc1cc(-c2nc3cc(Cl)cc(Cl)c3c(=O)[nH]2)cc(C)c1OCCN1CCCC1` [Example 67, 5,7-Dichloro-2-(3,5-dimethyl-4-(2-(pyrrolidin-1-yl)ethoxy)phenyl)quinazolin-4(3H)-one] returned a melting point of 209 to 210 °C. The “FRET activity (<50 uM)” value on Brd4 bromodomain 1 is reported as “Inactive”.
On the same counts, the results for `COc1cc(OC)c2c(=O)[nH]c(-c3cc(C)c(OCCN4CCN(C(C)=O)CC4)c(C)c3)nc2c1` [Example 68, 2-(4-(2-(4-Acetylpiperazin-1-yl)ethoxy)-3,5-dimethylphenyl)-5,7-dimethoxyquinazolin-4(3H)-one] are 213 to 214 °C and “Active”.
Molecule `COc1cc(OC)c2c(=O)[nH]c(-c3cc(C)c(OCCn4ccnc4)c(C)c3)nc2c1` [Example 69, 2-(4-(2-(1H-Imidazol-1-yl)ethoxy)-3,5-dimethylphenyl)-5,7-dimethoxyquinazolin-4(3H)-one] had a melting point of 218 to 219 °C. Also, the “FRET activity (<50 uM)” value at Brd4 bromodomain 1 is “Active”.
For `COc1ccc2c(=O)[nH]c(-c3cc(C)c(OCCN4CCCC4)c(C)c3)nc2c1` [Example 70, 2-(3,5-Dimethyl-4-(2-(pyrrolidin-1-yl)ethoxy)phenyl)-7-methoxyquinazolin-4(3H)-one], in that order: 218 to 220 °C and “Inactive”.
`COc1cc(OC)c2c(=O)[nH]c(-c3cc(C)c(OCCN4CCN(C)CC4)c(C)c3)nc2c1` [Example 71, 2-(3,5-Dimethyl-4-(2-(4-methylpiperazin-1-yl)ethoxy)phenyl)-5,7-dimethoxyquinazolin-4(3H)-one] showed a melting point of 180 to 182 °C. Further, the “FRET activity (<50 uM)” value on Brd4 bromodomain 1 is “Active”.
In the case of `COc1cc(OC)c2c(=O)[nH]c(-c3cc(C)c(OCCN4CCCCC4)c(C)c3)nc2c1` [Example 72, 2-(3,5-Dimethyl-4-(2-(piperidin-1-yl)ethoxy)phenyl)-5,7-dimethoxyquinazolin-4(3H)-one], the “FRET activity (<50 uM)” value on Brd4 bromodomain 1 is “Active”.
Molecule `COc1cc(OC)c2c(=O)[nH]c(-c3cc(C)c(OCCN4C(=O)CN(C(C)C)C4=O)c(C)c3)nc2c1` [Example 74, 3-(2-(4-(5,7-Dimethoxy-4-oxo-3,4-dihydroquinazolin-2-yl)-2,6-dimethylphenoxy)ethyl)-1-isopropylimidazolidine-2,4-dione] showed a melting point of 219 to 221 °C. Also, the “FRET activity (<50 uM)” value at Brd4 bromodomain 1 is recorded as “Active”.
`COc1cc(OC)c2c(=O)[nH]c(-c3cc(C)c(OCCCN4CCCC4)c(C)c3)nc2c1` [Example 75, 2-(3,5-Dimethyl-4-(3-(pyrrolidin-1-yl)propoxy)phenyl)-5,7-dimethoxyquinazolin-4(3H)-one]: the “FRET activity (<50 uM)” value at Brd4 bromodomain 1 was “Active”.
Regarding `COc1cc(OC)c2c(=O)[nH]c(-c3ccc(OCCN4CCCC4)cc3)nc2c1` [Example 76, 5,7-Dimethoxy-2-(4-(2-(pyrrolidin-1-yl)ethoxy)phenyl)quinazolin-4(3H)-one], the melting point fell in the range of 226 to 227 °C. In addition, the “FRET activity (<50 uM)” value on Brd4 bromodomain 1 was “Active”.
`COc1cc(OC)c2c(=O)[nH]c(-c3cc(C)c(CCCN4CCCC4)c(C)c3)nc2c1` [Example 77, 2-(3,5-Dimethyl-4-(3-(pyrrolidin-1-yl)propyl)phenyl)-5,7-dimethoxyquinazolin-4(3H)-one] gave a melting point of 194 to 196 °C. For the same molecule, at Brd4 bromodomain 1, the “FRET activity (<50 uM)” value is recorded as “Active”.
On the same counts, the results for `COc1cc(OC)c2c(=O)[nH]c(-c3cc(C)c(OCCCCN4CCCC4)c(C)c3)nc2c1` [Example 78, 2-(3,5-Dimethyl-4-(4-(pyrrolidin-1-yl)butoxy)phenyl)-5,7-dimethoxyquinazolin-4(3H)-one] are 180 to 181 °C and “Active”.
For `COc1cc(OC)c2c(=O)[nH]c(-c3cc(C)c(OCCN4C(=O)NC(c5ccccc5)C4=O)c(C)c3)nc2c1` (stereo not drawn) [Example 79, 3-(2-(4-(5,7-Dimethoxy-4-oxo-3,4-dihydroquinazolin-2-yl)-2,6-dimethylphenoxy)ethyl)-5-phenylimidazolidine-2,4-dione], the melting point lay in the range of 219.6 to 221.4 °C. On Brd4 bromodomain 1, the “FRET activity (<50 uM)” value is recorded as “Active”.
On to `Cc1cc(-c2nc3cc(F)cc(N4CCCC4)c3c(=O)[nH]2)cc(C)c1OCCN1CCCC1` [Example 82, 2-(3,5-Dimethyl-4-(2-(pyrrolidin-1-yl)ethoxy)phenyl)-7-fluoro-5-(pyrrolidin-1-yl)quinazolin-4(3H)-one], for which, at Brd4 bromodomain 1, the “FRET activity (<50 uM)” value is listed as “Inactive”.
As to `Cc1cc(-c2nc3cc(F)cc(F)c3c(=O)[nH]2)cc(C)c1OCCN1CCCC1` [Example 85, 2-(3,5-Dimethyl-4-(2-(pyrrolidin-1-yl)ethoxy)phenyl)-5,7-difluoroquinazolin-4(3H)-one], on Brd4 bromodomain 1, the “FRET activity (<50 uM)” value is reported as “Inactive”.
On the same count and under the same terms, in the case of `COc1cc(OC)c2c(=O)[nH]c(-c3cc(C)c(OCCN4C(=O)c5ccccc5C4=O)c(C)c3)cc2c1` [Example 90, 2-(2-(4-(6,8-Dimethoxy-1-oxo-1,2-dihydroisoquinolin-3-yl)-2,6-dimethylphenoxy)ethyl)isoindoline-1,3-dione] it was “Inactive”; in that of `Cc1cc(-c2nc3nc(OC(C)C)cc(OC(C)C)c3c(=O)[nH]2)cc(C)c1OCCN1CCCC1` [Example 91, 2-(3,5-Dimethyl-4-(2-(pyrrolidin-1-yl)ethoxy)phenyl)-5,7-diisopropoxypyrido[2,3-d]pyrimidin-4(3H)-one], “Inactive”.
Still for that read-out and setting: the result for `COc1cc(OC)c2c(=O)[nH]c(-c3cc(C)c(OC[C@@H]4CCC(=O)N4)c(C)c3)nc2c1` [Example 92, (S)-2-(3,5-Dimethyl-4-((5-oxopyrrolidin-2-yl)methoxy)phenyl)-5,7-dimethoxyquinazolin-4(3H)-one] reads “Active”; that for `COc1cc(OC)c2c(=O)[nH]c(-c3ccc(CN4CCN(C(C)C)CC4)cc3)nc2c1` [Example 93, 2-(4-((4-Isopropylpiperazin-1-yl)methyl)phenyl)-5,7-dimethoxyquinazolin-4(3H)-one], “Active”; that for `COc1cc(OC)c2c(=O)[nH]c(-c3ccc(CN4CCC(N(C(C)=O)C(C)C)CC4)cc3)nc2c1` [Example 94, N-(1-(4-(5,7-Dimethoxy-4-oxo-3,4-dihydroquinazolin-2-yl)benzyl)piperidin-4-yl)-N-isopropylacetamide], “Active”.
Still for that read-out and setting: the result for `COc1cc(OC)c2c(=O)[nH]c(-c3ccc(CN4CCC(NC(C)C)CC4)cc3)nc2c1` [Example 95, 2-(4-((4-(Isopropylamino)piperidin-1-yl)methyl)phenyl)-5,7-dimethoxyquinazolin-4(3H)-one] reads “Active”.
For `COc1cc(OC)c2c(=O)[nH]c(-c3cc(C)c(OCCN4C(=O)CCC4=O)c(C)c3)nc2c1` [Example 97, 1-(2-(4-(5,7-Dimethoxy-4-oxo-3,4-dihydroquinazolin-2-yl)-2,6-dimethylphenoxy)ethyl)pyrrolidine-2,5-dione], the “FRET activity (<50 uM)” value at Brd4 bromodomain 1 is reported as “Active”.
The same measure, in the same setting: in the case of `COCCOc1cc(OC)cc2nc(-c3cc(C)nc(C)c3)[nH]c(=O)c12` [Example 105, 2-(2,6-Dimethylpyridin-4-yl)-7-methoxy-5-(2-methoxyethoxy)quinazolin-4(3H)-one] it was “Active”.
In turn, `COc1cc(OCCOC(C)C)cc2nc(-c3cc(C)nc(C)c3)[nH]c(=O)c12` [Example 107, 2-(2,6-Dimethylpyridin-4-yl)-7-(2-isopropoxyethoxy)-5-methoxyquinazolin-4(3H)-one] showed a melting point of 188 to 189 °C.
As for `COc1cccc(-c2nc3cc(OC)cc(OC)c3c(=O)[nH]2)c1` [Example 116, 5,7-Dimethoxy-2-(3-methoxyphenyl)quinazolin-4(3H)-one], the “FRET activity (<50 uM)” value on Brd4 bromodomain 1 was “Inactive”.
